From patent US8389721B2, “Solubilized topoisomerase poisons” (Rutgers, The State University of New Jersey, priority 2001, dated 2013)
Like-named read-outs stand apart in the source and are kept apart here.

Key:
CPT-K5 = experiment: MTT-microtiter plate tetrazolinium cytotoxicity assay (Test B), camptothecin-resistant variant; format: cell-based; conditions: Homo sapiens
Method: (§1) Test B. Inhibition of Cell Growth: MTT-Microtiter Plate Tetrazolinium Cytotoxicity Assay (RPMI 8402, CPT-K5, U937, U937/CR Cells)
(§2) The cytotoxicity is determined using the MTT-microtiter plate tetrazolinium cytotoxicity assay (MTA), see Chen A. Y. et al. Cancer Res. 1993, 53, 1332; Mosmann, T. J., J. Immunol. Methods 1983, 65, 55; and Carmichael, J. et al. Cancer Res. 1987, 47, 936. The human lymphoblast RPMI 8402 and its camptothecin-resistant variant cell line, CPT-K5 were provided by Dr. Toshiwo Andoh (Anchi Cancer Research Institute, Nagoya, Japan), see Andoh, T.; Okada, K, Adv. in Pharmacology 1994, 29B, 93. Human U-937 myeloid leukemia cells and U-937/CR cells were described by Rubin et al., J. Biol. Chem., 1994, 269, 2433-2439. The cytotoxicity assay is performed by using 96-well microtiter plates using 2000 cells/well, in […] of growth medium. Cells are grown in suspension at 37° C. in 5% CO2 and maintained by regular passage in RPMI medium supplemented with 10% heat-inactivated fetal bovine serum, L-glutamine (2 mM), penicillin (100 U/mL), and streptomycin (0.1 mg/mL). For determination of IC50, cells are exposed continuously for 3-4 days to varying concentrations of drug, and MTT assays were performed at the end of the fourth day. […] All assays are performed at least twice in 6 replicate wells. All assays are performed under the direction of Dr. L. F. Liu, Department of Pharmacology, The University of Medicine and Dentistry of New Jersey, Robert Wood Johnson Medical School, Piscataway, N.J.

RPMI 8402 = experiment: MTT-microtiter plate tetrazolinium cytotoxicity assay (Test B); format: cell-based, human
Method: as §1, §2

[1] = camptothecin-resistant variant cell line CPT-K5, continuous exposure 3-4 days, MTT, read-out: CPT-K5 IC50 values
[2] = human lymphoblast RPMI 8402 cells, continuous exposure 3-4 days, MTT, read-out: RPMI 8402 [μM] IC50 values

## COc1cc2c(cc1OC)-c1cnc3cc4c(cc3c1N(C(C)CN(C)C)C2)OCO4 (stereo not drawn) [Example 18, 8,9-Dimethoxy-2,3-methylenedioxy-5-[2-(N,N-dimethylamino)-1-methylethyl]-5,6-dihydro-dibenzo[c,h]1,6-naphthyridine]
other
  melting point: 153 to 154 °C

## CC[C@@]1(O)C(=O)OCc2c1cc1n(c2=O)Cc2cc3ccccc3nc2-1 [Camptothecin]
CPT-K5; CPT-K5, read-out: CPT-K5 IC50 values
  IC50: 4500 nM
RPMI 8402; Homo sapiens, RPMI 8402, read-out: RPMI 8402 [μM] IC50 values
  IC50: 0.002 µM

## CC[C@@]1(O)C(=O)OCc2c1cc1n(c2=O)Cc2cc3c(CN(C)C)c(O)ccc3nc2-1 [Topotecan]
CPT-K5; [1]
  IC50: > 10000 nM
RPMI 8402; [2]
  IC50: 0.005 µM

## COc1cc2c(=O)n(CCN(C)C)c3c4cc5c(cc4nnc3c2cc1OC)OCO5 [Compound 5, 11,12-dihydro-2,3-dimethoxy-8,9-methylenedioxy-11-[2-(dimethylamino)ethyl]-5,6,11-triazachrysen-12-one]
CPT-K5; [1]
  IC50: 1200 nM
RPMI 8402; [2]
  IC50: 0.003 µM

## COc1cc2c(=O)n(C(C)CN(C)C)c3c4cc5c(cc4ncc3c2cc1OC)OCO5 (stereo not drawn) [Example 8, 8,9-Dimethoxy-2,3-methylenedioxy-5-[2-(N,N-dimethylamino)-1-methylethyl]-5H-dibenzo[c,h]1,6-naphthyridin-6-one]
other
  melting point: 186 to 187 °C

## CCc1c2c(nc3ccc(OC(=O)N4CCC(N5CCCCC5)CC4)cc13)-c1cc3c(c(=O)n1C2)COC(=O)[C@]3(O)CC [Irinotecan]
CPT-K5; [1]
  IC50: > 100000 nM
RPMI 8402; [2]
  IC50: 0.57 µM

## COc1cc2c(=O)n(CC3CCCO3)c3c4cc5c(cc4ncc3c2cc1OC)OCO5 (stereo not drawn) [Example 12, 8,9-Dimethoxy-2,3-methylenedioxy-5-(2-tetrahydrofuranyl)methyl-5H-dibenzo[c,h]1,6-naphthyridin-6-one]
other
  melting point: 270 to 273 °C

## COc1cc2c(=O)n(CCN3CCCC3)c3c4cc5c(cc4ncc3c2cc1OC)OCO5 [Example 9, 8,9-Dimethoxy-2,3-methylenedioxy-5-[2-(pyrrolidin-1-yl)ethyl]-5H-dibenzo[c,h]1,6-naphthyridin-6-one]
other
  melting point: 255 to 257 °C (dec.)

## COc1cc2c(=O)n(CC3CCCO3)c3c4cc5c(cc4nnc3c2cc1OC)OCO5 (stereo not drawn) [Example 4, 2,3-Dimethoxy-8,9-methylenedioxy-11-(2-tetrahydrofuranyl)methyl-11H-5,6,11-triazachrysen-12-one]
other
  melting point: 300 to 303 °C (dec.)

## COc1cc2c(=O)n(CCN3CCCCC3)c3c4cc5c(cc4nnc3c2cc1OC)OCO5 [Example 6, 2,3-Dimethoxy-8,9-methylenedioxy-11-[2-(piperidin-1-yl)ethyl]-11H-5,6,11-triaza-chrysen-12-one]
other
  melting point: 294 to 295 °C

## COc1cc2c(=O)n(CCN3CCN(C)CC3)c3c4cc5c(cc4ncc3c2cc1OC)OCO5 [Example 10, 8,9-Dimethoxy-2,3-methylenedioxy-5-[2-(4-methylpiperazin-1-yl)ethyl]-5H-dibenzo[c,h]1,6-naphthyridin-6-one]
other
  melting point: 244 to 246 °C

## COc1cc2c(=O)n(CCCN(C)C)c3c4cc5c(cc4ncc3c2cc1OC)OCO5 [Example 11, 8,9-Dimethoxy-2,3-methylenedioxy-5-[3-(N,N-dimethylamino)propyl]-5H-dibenzo[c,h]1,6-naphthyridin-6-one]
other
  melting point: 262 to 264 °C (dec.)

## COc1cc2c(cc1OC)-c1cnc3cc4c(cc3c1N(CCN(C)C)C2)OCO4 [Example 17, 8,9-Dimethoxy-2,3-methylenedioxy-5-[2-(N,N-dimethylamino)ethyl]-5,6-dihydro-dibenzo[c,h]1,6-naphthyridine]
other
  melting point: 271 to 273 °C (dec.)

## COc1cc2c(=O)n(CCO)c3c4cc5c(cc4ncc3c2cc1OC)OCO5 [Example 13, 8,9-Dimethoxy-2,3-methylenedioxy-5-[2-(hydroxy)ethyl]-5H-dibenzo[c,h]1,6-naphthyridin-6-one]
other
  melting point: 285 to 286 °C

## CCN(CC)CCn1c(=O)c2cc(OC)c(OC)cc2c2cnc3cc4c(cc3c21)OCO4 [Example 19, 8,9-Dimethoxy-2,3-methylenedioxy-5-[2-(N,N-diethylamino)ethyl]-5H-dibenzo[c,h]1,6-naphthyridin-6-one]
other
  melting point: 221 to 223 °C (dec.)

## COc1cc2c(=O)n(CCOCCO)c3c4cc5c(cc4ncc3c2cc1OC)OCO5 [Example 14, 8,9-Dimethoxy-2,3-methylenedioxy-5-[2-(2-hydroxyethoxy)ethyl]-5H-dibenzo[c,h]1,6-naphthyridin-6-one]
other
  melting point: 235 °C

## COc1cc2c(=O)n(CCN3CCCC3)c3c4cc5c(cc4nnc3c2cc1OC)OCO5 [Example 5, 2,3-Dimethoxy-8,9-methylenedioxy-11-[2-(pyrrolidin-1-yl)ethyl]-11H-5,6,11-triaza-chrysen-12-one]
other
  melting point: 229 °C
